Measurements published in patent US9765039B2, “Biaryl derivatives as bromodomain inhibitors” (Zenith Epigenetics Ltd., priority 2012, dated 2017).
Structures can show the parent of a compound that is named as a salt.

How the values were obtained:
hIL-6 mRNA = assay: Inhibition of hIL-6 mRNA transcription in LPS-stimulated U937 macrophages; type: cell-based, human; parameters: key: Active: Compounds with an IC50 value less than 30 μM are deemed to be active; settings: U937 differentiated into macrophages, 1 h pretreatment, lipopolysaccharide 3 h
Method: In this example, hIL-6 mRNA in tissue culture cells was quantitated to measure the transcriptional inhibition of hIL-6 when treated with a compound of the present disclosure.
A human leukemic monocyte lymphoma cell line (U937) was plated (3.2×10^4 cells per well) in a 96-well plate in 100 μL RPMI-1640 containing 10% FBS and penicillin/streptomycin, and differentiated into macrophages for 3 days in 60 ng/mL PMA ([…]) at 37° C. in 5% CO2 prior to the addition of the compound of interest. The cells were pretreated for 1 h with the test compound prior to stimulation with […] lipopolysaccharide from Escherichia coli. The cells were incubated at 37° C. for 3 h before the cells were harvested. At time of harvest, the spent media was removed from the cells and the cells were rinsed in 200 μL PBS. Cell lysis solution (70 μL) was added the cells in each well and incubated for 5-10 min at room temperature, to allow for complete cell lysis and detachment. mRNA was then prepared using the “mRNA Catcher PLUS plate” (Invitrogen), according to the protocol supplied. After the last wash, as much wash buffer as possible was aspirated without allowing the wells to dry. Elution buffer (E3, 70 μL) was then added to each well. mRNA was then eluted by incubating the mRNA Catcher PLUS plate with Elution Buffer for 5 min at 68° C. and then immediately placing the plate on ice.
The eluted mRNA isolated was then used in a one-step quantitative real-time PCR reaction, using components of the Ultra Sense Kit together with Applied Biosystems primer-probe mixes. Real-time PCR data was analyzed, normalizing the Ct values for hIL-6 to an internal control, prior to determining the fold induction of each unknown sample, relative to the control.

Brd4 bromodomain 1 = target: T1, Brd4 bromodomain 1 (Homo sapiens, UniProt O60885); assay: Inhibition of tetra-acetylated histone H4 binding to BET bromodomains (TR-FRET); parameters: key: Active: Compounds with an IC50 value less than 30 μM were deemed to be active.; Not Active: Compounds with an IC50 value less than 30 μM were deemed to be active; settings: first bromodomain of Brd4, tetra-acetylated histone H4 peptide
T1 construct: made in house; host or cells: E. coli BL21(DE3)
Method: Proteins were cloned and overexpressed with a N-terminal 6×His tag, then purified by nickel affinity followed by size exclusion chromatography. Briefly, E. coli BL21(DE3) cells were transformed with a recombinant expression vector encoding N-terminally Nickel affinity tagged bromodomains from Brd2, Brd3, Brd4. Cell cultures were incubated at 37° C. with shaking to the appropriate density and induced overnight with IPTG. The supernatant of lysed cells was loaded onto Ni-IDA column for purification. Eluted protein was pooled, concentrated and further purified by size exclusion chromatography. Fractions representing monomeric protein were pooled, concentrated, aliquoted, and frozen at −80° C. for use in subsequent experiments.
Binding of tetra-acetylated histone H4 and BET bromodomains was confirmed by a Time Resolved Fluorescence Resonance Energy Transfer (TR-FRET) method. N-terminally His-tagged bromodomains (200 nM) and biotinylated tetra-acetylated histone H4 peptide (25-50 nM, Millipore) were incubated in the presence of Europium Cryptate-labeled streptavidin (Cisbio Cat. #610SAKLB) and XL665-labeled monoclonal anti-His antibody (Cisbio Cat. #61HISXLB) in a white 96 well microtiter plate (Greiner). For inhibition assays, serially diluted test compound was added to these reactions in a 0.2% final concentration of DMSO. Final buffer concentrations were 30 mM HEPES pH 7.4, 30 mM NaCl, 0.3 mM CHAPS, 20 mM phosphate pH 7.0, 320 mM KF, 0.08% BSA). After 2 hours incubation at room temperature, the fluorescence by FRET was measured at 665 and 620 nm by a SynergyH4 plate reader (Biotek). Illustrative results with the first bromodomain of Brd4 are shown below (Table 1). The binding inhibitory activity was shown by a decrease in 665 nm fluorescence relative to 620 nm. IC50 values were determined from a dose response curve.

Human AML MV-4-11 cells = assay: Inhibition of cell proliferation in cancer cell lines (CellTiter Aqueous One); type: cell-based; parameters: key: Active: Compounds with an IC50 value less than 30 μM were deemed to be active.; Not Active: Compounds with an IC50 value less than 30 μM were deemed to be active; settings: 72 hours
Method: MV4-11 cells: 96-well plates were seeded with 5×10^4 cells per well of exponentially growing human AML MV-4-11 (CRL-9591) cells and immediately treated with two-fold dilutions of test compounds, ranging from 30 μM to 0.2 μM. Triplicate wells were used for each concentration, as well as a media only and three DMSO control wells. The cells and compounds were incubated at 37° C., 5% CO2 for 72 hours before adding 20 μL of the CellTiter Aqueous One Solution (Promega) to each well and incubating at 37° C., 5% CO2 for an additional 3-4 hours. The absorbance was taken at 490 nm in a spectrophotometer and the percentage of proliferation relative to DMSO-treated cells was calculated after correction from the blank well. IC50 were calculated using the GraphPad Prism software.

c-myc = assay: Inhibition of c-myc expression in cancer cell lines (mRNA, real-time PCR); type: cell-based; parameters: key: Active: Compounds with an IC50 value less than 30 μM were deemed to be active; settings: Human AML MV4-11 cells, 3 hours
Method: MV4-11 cells (2.5×10^4 cells) were plated in 96 well U-bottom plates with test compound or DMSO (0.1%), and incubated for 3 hours at 37° C. Cells were then harvested by centrifugation, lysed, and mRNA was isolated using the mRNA catcher plus kit (Invitrogen). Reverse transcription of the mRNA and duplex amplification of the c-myc and cyclophilin cDNAs was performed using the RNA Ultrasense kit (Invitrogen) and a ViiA7 real-time PCR machine (Applied Biosystems). IC50 values were determined from a dose response curve.

| melting point | IL-6 activity (IC50 < 30 μM) (hIL-6 mRNA) | FRET activity (IC50 < 30 μM) (Brd4 bromodomain 1) | cell proliferation activity (IC50 < 30 μM) (Human AML MV-4-11 cells) | c-myc activity (IC50 < 30 μM) (c-myc) | Structure (SMILES) |
| --- | --- | --- | --- | --- | --- |
| 232 to 234 °C | – | – | – | – | COc1cc(OC)c2c(=O)[nH]c(-c3ccc(OCCO)c(-c4ccc(C(C)=O)cc4)n3)nc2c1 (as salt: hydrochloride) [Example 28, 2-(6-(4-Acetylphenyl)-5-(2-hydroxyethoxy)pyridin-2-yl)-5,7-dimethoxyquinazolin-4(3H)-one] |
| 235 to 236 °C | – | – | – | – | CCS(=O)(=O)c1ccc(-c2nc(-c3nc4cc(OC)cc(OC)c4c(=O)[nH]3)ccc2OCCN2CCCC2)cc1 (as salt: hydrochloride) [Example 42, 2-(6-(4-(Ethylsulfonyl)phenyl)-5-(2-(pyrrolidin-1-yl)ethoxy)pyridin-2-yl)-5,7-dimethoxyquinazolin-4(3H)-one] |
| 245 °C (dec.) | – | – | – | – | CCS(=O)(=O)c1ccc(-c2nc(-c3nc4cc(OC)cc(OC)c4c(=O)[nH]3)ccc2OCCN2CCOCC2)cc1 (as salt: hydrochloride) [Example 43, 2-(6-(4-(Ethylsulfonyl)phenyl)-5-(2-morpholinoethoxy)pyridin-2-yl)-5,7-dimethoxyquinazolin-4(3H)-one] |
| – | Not Active | Not Active | – | – | CN1CC[C@H](Oc2cc(F)cc3nc(-c4cccc(-c5ccc(S(C)(=O)=O)cc5)n4)[nH]c(=O)c23)C1 [Example 7, (S)-7-Fluoro-5-((1-methylpyrrolidin-3-yl)oxy)-2-(6-(4-(methylsulfonyl)phenyl)pyridin-2-yl)quinazolin-4(3H)-one] |
| – | Active | Not Active | Active | Not Active | COc1cc(OC)c2c(=O)[nH]c(-c3cccc(-c4ccc(C(=O)N(C)C)cc4)n3)cc2c1 [Example 8, 4-(6-(6,8-Dimethoxy-1-oxo-1,2-dihydroisoquinolin-3-yl)pyridin-2-yl)-N,N-dimethylbenzamide] |
| – | Not Active | Not Active | – | – | COc1cc(OC)c2c(=O)[nH]c(-c3cccc(-c4ccc(S(C)(=O)=O)cc4)n3)cc2c1 [Example 9, 6,8-Dimethoxy-3-(6-(4-(methylsulfonyl)phenyl)pyridin-2-yl)isoquinolin-1(2H)-one] |
| – | Active | Not Active | – | – | COc1cc(OC)c2c(=O)[nH]c(-c3cccc(-c4ccc([S+](C)[O-])cc4)n3)cc2c1 (centres unmarked) [Example 10, 6,8-dimethoxy-3-(6-(4-(methylsulfinyl)phenyl)pyridin-2-yl)isoquinolin-1(2H)-one] |
| – | Active | Active | Active | Active | COc1cc(OC)c2c(=O)[nH]c(-c3ccc(OCCN(C)C)c(-c4ccc([S+](C)[O-])cc4)c3)nc2c1 (centres unmarked) [Example 11, 2-(6-(2-(Dimethylamino)ethoxy)-4′-(methylsulfinyl)biphenyl-3-yl)-5,7-dimethoxyquinazolin-4(3H)-one] |
| – | Not Active | – | Not Active | Not Active | COc1cc(OC)c2c(=O)[nH]c(-c3ccc(OC4CNC4)c(-c4ccc([S+](C)[O-])cc4)c3)nc2c1 (centres unmarked) [Example 12, 2-(6-(Azetidin-3-yloxy)-4′-(methylsulfinyl)biphenyl-3-yl)-5,7-dimethoxyquinazolin-4(3H)-one] |
| – | Active | Active | Active | Active | COc1cc(OC)c2c(=O)[nH]c(-c3ccc(OC4CN(C)C4)c(-c4ccc([S+](C)[O-])cc4)c3)nc2c1 (centres unmarked) [Example 13, 5,7-Dimethoxy-2-(6-(1-methylazetidin-3-yloxy)-4′-(methylsulfinyl)biphenyl-3-yl)quinazolin-4(3H)-one] |
| – | Not Active | Active | Not Active | Not Active | COc1cc(F)cc2nc(-c3ccc(OC4CNC4)c(-c4ccc([S+](C)[O-])cc4)c3)[nH]c(=O)c12 (centres unmarked) [Example 14, 2-(6-(Azetidin-3-yloxy)-4′-(methylsulfinyl)-[1,1′-biphenyl]-3-yl)-7-fluoro-5-methoxyquinazolin-4(3H)-one] |
| – | Active | Active | Not Active | Not Active | COc1cc(OC)c2c(=O)[nH]c(-c3ccc(OCCO)c(-c4ccc([S+](C)[O-])cc4)c3)nc2c1 (centres unmarked) [Example 16, 2-(6-(2-Hydroxyethoxy)-4′-(methylsulfinyl)biphenyl-3-yl)-5,7-dimethoxyquinazolin-4(3H)-one] |
| – | Active | Active | – | – | COc1cc(OC)c2c(=O)[nH]c(-c3ccc(OCCO)c(-c4ccc(C(C)=O)cc4)n3)nc2c1 [Example 28, 2-(6-(4-Acetylphenyl)-5-(2-hydroxyethoxy)pyridin-2-yl)-5,7-dimethoxyquinazolin-4(3H)-one] |
| – | Not Active | Not Active | Not Active | Not Active | COc1cc(OC)c2c(=O)[nH]c(-c3ccc(OCCO)c(-c4cccc(S(C)(=O)=O)c4)n3)nc2c1 [Example 36, 2-(5-(2-Hydroxyethoxy)-6-(3-(methylsulfonyl)phenyl)pyridin-2-yl)-5,7-dimethoxyquinazolin-4(3H)-one methanesulfonate] |
| – | Active | Active | – | – | CC(C)NCCOc1ccc(-c2nc3ccccc3c(=O)[nH]2)nc1-c1ccc([S+](C)[O-])cc1 (centres unmarked) [Example 65, 2-(5-(2-(Isopropylamino)ethoxy)-6-(4-(methylsulfinyl)phenyl)pyridin-2-yl)quinazolin-4(3H)-one] |
| – | – | Active | – | – | COc1ccc2c(=O)[nH]c(-c3ccc(OCCNC(C)C)c(-c4ccc([S+](C)[O-])cc4)n3)nc2c1 (centres unmarked) [Example 66, 2-(5-(2-(Isopropylamino)ethoxy)-6-(4-(methylsulfinyl)phenyl)pyridin-2-yl)-7-methoxyquinazolin-4(3H)-one] |
